SMILES strings stand for the structures.

Drawing on paper PMC9440883, “A new source of bacterial myrosinase isolated from endophytic Bacillus sp. NGB-B10, and its relevance in biological control activity” (World Journal of Microbiology & Biotechnology, 2022), this text covers Km for one molecule.

This assay concerns myrosinase (bglA, 6-phospho-β-glucosidase, GH1). The experiment in a line: initial rates, Lineweaver-Burk plot. The format is biochemical, Bacillus sp. NGB-B10. To be noted: 0.05 M phosphate buffer pH 7.0; 1-20 mM sinigrin; partially purified enzyme.

Regarding `C=CC/C(=N/OS(=O)(=O)O)S[C@@H]1O[C@H](CO)[C@@H](O)[C@H](O)[C@H]1O` [sinigrin], the Km came to 2500 µM.
